Assays:
IDH1-WT = target: T1, IDH1-WT (Homo sapiens, UniProt O75874); test: IDH1-WT Fluorescence Assay (Resazurin based); type: biochemical; conditions: 1 nM IDH1-WT, 200 μM isocitrate, 15 μM NADP+, 30 min at room temperature
T1 construct: purchased BPS Bioscience 71075-2
Experimental: IC50 values of compounds against IDH1-WT was determined by Resazurin based Fluorescence assay. Assays were performed in Buffer (50 mM Tris HCl, 10 mM MgCl2, 0.03% BSA, 2 mM ß-mercaptoethanol) where total reaction volume was 25 μL in low-volume 96-well plates. Serially diluted compounds (3-fold) in DMSO (0.5% in final reaction) were incubated with cocktail of isocitrate (200 μM; Cat # I1252-1G, Sigma), NADP^+ (15 μM; Cat # N0505-500MG, Sigma) and buffer for 5 min, following addition of IDH1-WT enzyme (1 nM; Cat #71075-2, BPS Bioscience) and incubated in dark at room temperature for 30 min. After that, 12.5 μL detection solution containing Resazurin (60 μM; Cat #62758-13-8, Sigma) and Diaphorase (40 μg/ml; Cat # D2197-300UN, Sigma) in buffer was added and incubated for 15 min. Readings were taken using a Synergy Neo Plate reader (BioTek, Winooski) at single excitation of 540 nm and emission at 590 nm respectively.
The % (percent) activity of test samples was calculated as (Sample−Min)×100/(Max−Min). [Max: DMSO control, complete reaction with enzyme with DMSO and Min: No enzyme with DMSO]. Percent inhibition (100−% activity) was fitted to the “four-parameter logistic model” in XLfit for determination of IC50 values.

IDH1 mutant (R132H) = target: T2, IDH1 mutant (R132H) (Homo sapiens, UniProt O75874, R132H); test: Mutant IDH1-R132H Fluorescence Assay (Resazurin based); type: biochemical; conditions: 10 nM IDH1 R132H, 4 mM α-ketoglutarate, NADPH, 1.5 h at room temperature
T2 construct: purchased BPS Bioscience 71099-2
Procedure, shortened: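 Recombinant IDH1 R132H (10 nM) was run with α-ketoglutarate (4 mM) and NADPH ([…]) for 1.5 h at room temperature in Tris pH buffer with MgCl2, BSA and mercaptoethanol. Remaining NADPH was detected via diaphorase/resazurin fluorescence (ex 540/em 590 nm). IC50 came from a 4-parameter logistic fit.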

[1] = target: T3, mutant IDH1 (R132C) HT1080 cells (Homo sapiens, UniProt O75874, R132C); test: Cellular 2-HG assay using mutant IDH1 (R132C) HT1080 cells; type: cell-based; conditions: 48 h treatment, 0.003 to 3 μM, 2-HG in cell culture media
T3 construct: host or cells: HT1080
Experimental: HT1080 (ATCC® CCL-121™) cells were plated in a 12 well plate (Nunc™ Cell-Culture Treated Multidish; Cat #150628) at a cell density of 5×10^4 cells/well. Cells were then treated with various concentrations of test/reference compounds (ranging from 0.003 to 3 μM) or vehicle for 48 h under cell culture conditions (in CO2 incubator, 5% CO2, 37° C.). Metabolites were extracted from cell culture media by precipitation method and IC50 values of compounds were determined by Resazurin based Fluorescence assay. Assay buffer contained 100 mM HEPES pH 8.0, 100 μM NAD^+ (Sigma; Cat # N1630-100MG), […] HGDH, 5 μM resazurin (Cat #62758-13-8, Sigma) and 0.01 U/ml diaphorase (Cat # D2197-300UN, Sigma). Total assay volume was 100 μl. 75 μl of assay buffer was added to 25 μl sample volume (supernatant) and incubated at RT in the dark for 30 min in black 96-well plates (Thermo Scientific). Fluorometric detection was done using a Synergy Neo Plate reader (BioTek, Winooski) at single excitation of 540 nm and emission at 590 nm respectively).
(§1) The % activity of test samples was calculated as (Sample−Min)×100/(Max−Min). [Max: DMSO control, complete reaction with enzyme with DMSO and Min: No enzyme with DMSO]. Percent inhibition (100−% activity) was fitted to the “four-parameter logistic model” in XLfit for determination of IC50 values.

IDH2 mutant (R140Q) = target: T4, IDH2 mutant (R140Q) (Homo sapiens, UniProt P48735, R140Q); test: Mutant IDH2-R140Q Fluorescence Assay (Resazurin based); type: biochemical; conditions: 5 nM IDH2 R140Q, 4 hr pre-incubation, 1 mM α-ketoglutarate, 5 μM NADPH, 2 h
T4 construct: purchased BPS Bioscience 71100-2
T4 sequence (P48735 40-452 R140Q): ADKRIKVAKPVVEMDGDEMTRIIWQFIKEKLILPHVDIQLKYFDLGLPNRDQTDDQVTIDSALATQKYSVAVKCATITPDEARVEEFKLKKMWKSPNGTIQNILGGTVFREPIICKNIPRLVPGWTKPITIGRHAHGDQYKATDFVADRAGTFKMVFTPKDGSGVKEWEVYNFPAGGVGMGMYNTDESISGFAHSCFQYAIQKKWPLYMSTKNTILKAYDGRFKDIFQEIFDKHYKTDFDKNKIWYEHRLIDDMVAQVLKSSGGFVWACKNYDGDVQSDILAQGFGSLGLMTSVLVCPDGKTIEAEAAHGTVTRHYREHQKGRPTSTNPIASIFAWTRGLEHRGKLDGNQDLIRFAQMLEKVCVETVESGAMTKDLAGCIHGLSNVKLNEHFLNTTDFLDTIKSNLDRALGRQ
Experimental: IC50 values of compounds against IDH2 mutant (R140Q) were determined by Resazurin based Fluorescence assay. Assay was performed in Buffer (25 mM Tris HCl, 150 mM NaCl, 10 mM MgCl2, 0.03% BSA, 2 mM 1-mercaptoethanol) where total reaction volume was 12.5 μL in low-volume 384-well plates (Cat #4511, Corning). Serially diluted compounds (3-fold) were pre-incubated with IDH2 R140Q mutant enzyme (5 nM; Cat #71100-2, BPS Bioscience) for 4 hr at RT (25° C.) followed by addition of cocktail of α-ketoglutarate (1 mM; Cat #75892-25G, Sigma), and NADPH (5 μM; Cat # N1630-100MG, Sigma) with buffer in dark at room temperature for 2 h. After 2 h incubation, 6.25 μL detection solution containing Resazurin (30 μM; (Cat #62758-13-8, Sigma) and Diaphorase (40 ug/ml; Cat # D2197-300UN, Sigma) in buffer was added and incubated for 15 min. Readings were taken in a Synergy Neo Plate reader (BioTek, Winooski) at single excitation of 540 nm and emission at 590 nm respectively.
as §1

T3 sequence (O75874 2-414 R132C limits assumed): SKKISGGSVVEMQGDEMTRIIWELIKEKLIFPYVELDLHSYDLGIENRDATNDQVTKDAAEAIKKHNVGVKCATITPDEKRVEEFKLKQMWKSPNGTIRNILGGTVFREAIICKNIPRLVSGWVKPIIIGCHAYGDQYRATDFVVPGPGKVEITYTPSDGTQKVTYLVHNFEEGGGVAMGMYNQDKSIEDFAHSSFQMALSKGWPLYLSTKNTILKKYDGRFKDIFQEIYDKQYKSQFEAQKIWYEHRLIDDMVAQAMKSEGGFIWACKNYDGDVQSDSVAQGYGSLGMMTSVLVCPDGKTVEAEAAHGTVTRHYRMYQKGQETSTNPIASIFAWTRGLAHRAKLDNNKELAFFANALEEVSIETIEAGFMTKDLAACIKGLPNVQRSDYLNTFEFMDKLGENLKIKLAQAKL
T1 sequence (O75874 whole entry): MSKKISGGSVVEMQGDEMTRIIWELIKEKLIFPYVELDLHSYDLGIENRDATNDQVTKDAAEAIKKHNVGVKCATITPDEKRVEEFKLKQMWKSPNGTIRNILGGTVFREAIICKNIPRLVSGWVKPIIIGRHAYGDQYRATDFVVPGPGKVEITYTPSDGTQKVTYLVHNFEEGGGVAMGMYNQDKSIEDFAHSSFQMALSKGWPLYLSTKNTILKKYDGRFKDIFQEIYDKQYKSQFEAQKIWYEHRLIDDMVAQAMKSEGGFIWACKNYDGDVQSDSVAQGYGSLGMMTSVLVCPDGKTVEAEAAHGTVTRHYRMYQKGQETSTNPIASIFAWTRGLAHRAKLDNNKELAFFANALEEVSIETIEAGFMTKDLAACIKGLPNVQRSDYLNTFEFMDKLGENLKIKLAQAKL
T2 sequence (O75874 whole entry R132H): as the sequence (O75874 whole entry) above, with R132H counted along it

SMILES	IC50 (IDH1-WT) [µM]	IC50 (IDH1 mutant (R132H)) [µM]	IC50 [1] [µM]	IC50 (IDH2 mutant (R140Q)) [µM]
CC[C@H]1COC(=O)N1c1nc(C)nc(N[C@@H](C)c2cc3cc(Cl)ccc3[nH]c2=O)n1 [Compound 1.38, (S)-3-(4-((S)-1-(6-chloro-2-oxo-1,2-dihydroquinolin-3-yl)ethylamino)-6-methyl-1,3,5-triazin-2-yl)-4-ethyloxazolidin-2-one]	> 50	0.144	0.634	> 50
CC[C@H]1COC(=O)N1c1nc(C)nc(N[C@@H](C)c2cc3cc(Cl)c(OC)cc3[nH]c2=O)n1 [Compound 1.42, (S)-3-(4-((S)-1-(6-chloro-7-methoxy-2-oxo-1,2-dihydroquinolin-3-yl)ethylamino)-6-methyl-1,3,5-triazin-2-yl)-4-ethyloxazolidin-2-one]	> 50	0.084	0.556	> 50
CC[C@H]1COC(=O)N1c1nc(C)nc(N[C@@H](C)c2ccc(Oc3ccccc3)cc2)n1 [Compound 1.44, (S)-4-ethyl-3-(4-methyl-6-((S)-1-(4-phenoxyphenyl)ethylamino)-1,3,5-triazin-2-yl)oxazolidin-2-one]	> 50	0.209	0.168	> 50
CC[C@H]1COC(=O)N1c1nc(C)nc(N[C@@H](C)c2cc3cc(Br)ccc3[nH]c2=O)n1 [Compound 1.66, (S)-3-(4-((S)-1-(6-bromo-2-oxo-1,2-dihydroquinolin-3-yl)ethylamino)-6-methyl-1,3,5-triazin-2-yl)-4-ethyloxazolidin-2-one]	> 50	0.328	–	> 50
CC[C@H]1COC(=O)N1c1nc(C)nc(N[C@@H](C)c2ccc(Oc3ccccc3)cn2)n1 [Compound 1.75, (S)-4-ethyl-3-(4-methyl-6-((S)-1-(5-phenoxypyridin-2-yl)ethylamino)-1,3,5-triazin-2-yl)oxazolidin-2-one]	> 50	0.832	–	> 50
CC[C@H]1COC(=O)N1c1nc(C)nc(N[C@@H](C)c2ccc(Oc3ccc(F)cc3Br)cc2)n1 [Compound 1.78, (S)-3-(4-((S)-1-(4-(2-bromo-4-fluorophenoxy)phenyl)ethylamino)-6-methyl-1,3,5-triazin-2-yl)-4-ethyloxazolidin-2-one]	> 50	0.44	–	> 50
CC[C@H]1COC(=O)N1c1nc(C)nc(N[C@@H](C)c2ccc(Oc3cccnc3C(F)(F)F)cc2)n1 [Compound 1.81, (S)-4-ethyl-3-(4-methyl-6-((S)-1-(4-(2-(trifluoromethyl)pyridin-3-yloxy)phenyl)ethylamino)-1,3,5-triazin-2-yl)oxazolidin-2-one]	> 50	0.586	–	> 50
CC[C@H]1COC(=O)N1c1nc(C)nc(N[C@@H](C)c2ccc(Oc3ccccc3)c(-c3ccccc3)c2)n1 [Compound 1.82, (S)-4-ethyl-3-(4-methyl-6-((S)-1-(6-phenoxybiphenyl-3-yl)ethylamino)-1,3,5-triazin-2-yl)oxazolidin-2-one]	> 50	0.414	–	> 50
CC[C@H]1COC(=O)N1c1nc(C)nc(N[C@@H](C)c2ccc(Oc3ccc(C)cc3)cc2)n1 [Compound 1.83, (S)-4-ethyl-3-(4-methyl-6-((S)-1-(4-(p-tolyloxy)phenyl)ethylamino)-1,3,5-triazin-2-yl)oxazolidin-2-one]	> 50	0.34	–	> 50
CC[C@H]1COC(=O)N1c1nc(C)nc(N[C@@H](C)c2ccc(Oc3ccccc3)c(F)c2)n1 [Compound 1.84, (S)-4-ethyl-3-(4-((S)-1-(3-fluoro-4-phenoxyphenyl)ethylamino)-6-methyl-1,3,5-triazin-2-yl)oxazolidin-2-one]	> 50	0.615	–	> 50
CC[C@H]1COC(=O)N1c1nc(C)nc(N[C@@H](C)c2ccc3ccn(-c4ccccc4)c3c2)n1 [Compound 1.85, (S)-4-ethyl-3-(4-methyl-6-((S)-1-(1-phenyl-1H-indol-6-yl)ethylamino)-1,3,5-triazin-2-yl)oxazolidin-2-one]	> 50	0.914	–	> 50
CC[C@H]1COC(=O)N1c1nc(C)nc(N[C@@H](C)c2ccc(Oc3ccccc3)c(C)c2)n1 [Compound 1.86, (S)-4-ethyl-3-(4-methyl-6-((S)-1-(3-methyl-4-phenoxyphenyl)ethylamino)-1,3,5-triazin-2-yl)oxazolidin-2-one]	> 50	0.277	–	> 50
CC[C@H]1COC(=O)N1c1nc(C)nc(N[C@@H](C)c2ccc(Sc3ccc(F)cc3)cc2)n1 [Compound 1.92, (S)-4-ethyl-3-(4-((S)-1-(4-(4-fluorophenylthio)phenyl)ethylamino)-6-methyl-1,3,5-triazin-2-yl)oxazolidin-2-one]	> 50	0.749	–	> 50
CC[C@H]1COC(=O)N1c1nc(C)nc(N[C@@H](C)c2ccc(Oc3ccc4ccccc4c3)cc2)n1 [Compound 1.94, (S)-4-ethyl-3-(4-methyl-6-((S)-1-(4-(naphthalen-2-yloxy)phenyl)ethylamino)-1,3,5-triazin-2-yl)oxazolidin-2-one]	> 50	0.52	–	> 50
CC[C@H]1COC(=O)N1c1nc(C)nc(N[C@H](C)c2cc3cc(Cl)c(OC(C)C)cc3[nH]c2=O)n1 [Compound 1.105, (S)-3-(4-((R)-1-(6-chloro-7-isopropoxy-2-oxo-1,2-dihydroquinolin-3-yl)ethylamino)-6-methyl-1,3,5-triazin-2-yl)-4-ethyloxazolidin-2-one]	> 50	0.66	–	> 50

Source: patent US20200206233A1 (INTEGRAL BIOSCIENCES PRIVATE LIMITED, priority 2018, published 2020)
